Consider 19 compounds from ChEMBL document CHEMBL4311946, “Mechanistic Insight on the Mode of Action of Colletoic Acid” (J Med Chem, 2019).

The source made the active and inactive calls. No cut-off for these calls is given here.

Data set [1] can be described thus: Half life in human plasma. The data set is classed as ADME, cell-free.
Data set [2] can be described thus: Half life in mouse liver microsomes. The data set is classed as ADME, Microsome. (In general: Liver microsomes are vesicles of endoplasmic reticulum, rich in cytochrome P450 enzymes.)
In data set [3] the target is 11-beta-hydroxysteroid dehydrogenase 1 (Homo sapiens, UniProt P28845, C272S). Description: Inhibition of N-terminal MKHQHQHQHQHQHQQPL-tagged 11beta-HSD1 C272S mutant (unknown origin) expressed in Escherichia coli BL21 (DE3) using cortisol as substrate measured for 1 hr in presence of NADPH by fluorescence assay.
Sequence of 11-beta-hydroxysteroid dehydrogenase 1 (P28845 whole entry C272S): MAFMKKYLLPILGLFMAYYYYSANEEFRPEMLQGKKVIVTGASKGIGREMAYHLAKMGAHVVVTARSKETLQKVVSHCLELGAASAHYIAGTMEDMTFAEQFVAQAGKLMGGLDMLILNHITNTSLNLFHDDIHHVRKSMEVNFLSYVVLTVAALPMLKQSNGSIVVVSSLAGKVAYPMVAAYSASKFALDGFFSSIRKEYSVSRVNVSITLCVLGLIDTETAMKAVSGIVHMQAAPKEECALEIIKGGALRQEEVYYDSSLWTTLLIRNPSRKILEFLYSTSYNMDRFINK
Data set [4] in a line: Half life in simulated gastric fluid. The data set is classed as ADME.
A short description of data set [5]: Stability in mouse plasma. It counts as ADME, cell-free.
Data set [6] has as its system 3T3-L1. Description: Cytotoxicity against mouse 3T3L1 cells measured after 72 hrs by celltiter-glo luminescent cell viability assay. It counts as ADME, cell-based. The settings on record: 3T3-L1, 72 h.
The nature of data set [7]: Half life in human liver microsomes. It counts as ADME, Microsome.
In data set [8] the target is T1, 11-beta-hydroxysteroid dehydrogenase type 2 (Homo sapiens, UniProt P80365).
T1 sequence (P80365 whole entry): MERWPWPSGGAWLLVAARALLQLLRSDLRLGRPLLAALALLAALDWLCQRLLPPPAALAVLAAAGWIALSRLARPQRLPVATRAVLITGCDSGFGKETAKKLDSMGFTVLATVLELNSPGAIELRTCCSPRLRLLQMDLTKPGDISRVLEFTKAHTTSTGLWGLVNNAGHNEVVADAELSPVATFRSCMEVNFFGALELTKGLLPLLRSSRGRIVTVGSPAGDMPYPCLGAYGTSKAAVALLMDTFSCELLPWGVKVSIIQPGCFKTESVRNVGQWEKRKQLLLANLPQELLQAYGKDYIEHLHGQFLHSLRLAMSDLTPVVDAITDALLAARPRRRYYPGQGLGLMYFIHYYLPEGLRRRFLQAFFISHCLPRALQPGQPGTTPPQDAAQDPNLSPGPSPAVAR
The data set is described as follows: Inhibition of 11beta-HSD2 (unknown origin) expressed in HEK293 cells using cortisone as substrate measured after 2 hrs in presence of NAD+ by HTRF assay. It counts as ADME, cell-based.

Data set [9] has as its target T2, Peroxisome proliferator-activated receptor gamma (Homo sapiens, UniProt P37231).
T2 sequence (P37231 whole entry): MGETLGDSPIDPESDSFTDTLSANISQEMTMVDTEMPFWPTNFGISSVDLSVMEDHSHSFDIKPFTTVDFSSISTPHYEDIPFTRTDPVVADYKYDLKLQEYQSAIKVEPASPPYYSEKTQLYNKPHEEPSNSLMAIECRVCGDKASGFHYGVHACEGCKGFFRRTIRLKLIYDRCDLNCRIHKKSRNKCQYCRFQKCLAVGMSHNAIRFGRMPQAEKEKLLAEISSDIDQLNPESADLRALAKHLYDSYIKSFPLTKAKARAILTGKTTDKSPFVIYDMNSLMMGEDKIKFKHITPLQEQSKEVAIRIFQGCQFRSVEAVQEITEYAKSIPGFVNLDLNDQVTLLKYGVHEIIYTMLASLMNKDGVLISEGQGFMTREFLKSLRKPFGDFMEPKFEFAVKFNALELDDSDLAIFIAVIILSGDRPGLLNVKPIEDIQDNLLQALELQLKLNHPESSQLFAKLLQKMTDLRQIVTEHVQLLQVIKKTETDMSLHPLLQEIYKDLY
Description: Antagonist activity at human PPARgamma expressed in 293H cells assessed as reduction in rosiglitazone-induced transcriptional response preincubated for 30 mins followed by rosiglitazone addition and measured after 16 hrs by reporter gene-based FRET assay. It counts as cell-based. (In a reporter assay the amount or activity of a reporter protein is the signal.)

The test system of data set [10] is 3T3-L1. Description: Inhibition of cell differentiation in mouse 3T3L1 cells assessed as reduction in pre-adipocyte differentiation into matured adipocytes at 50 uM incubated for 48 hrs under induction medium containing dehydrocorticosterone/cortisone followed by shifting to differentiation medium and measured after 7 days by Oil red O staining-based microscopic analysis. It counts as functional.

In general, half-life refers to the time in which the quantity being followed falls by half. A higher half-life goes with slow loss. As a reminder, the IC50 is the concentration at which inhibition is half-maximal. The term Ki denotes a measure of affinity in units of concentration, obtained from inhibition or displacement. The EC50 is the midpoint of the concentration-response curve. `CC1=CC[C@@]2(CC1=O)[C@@H](C(=O)O)CC[C@H]2C(C)C`: the half-life was > 48 h in data set [1] and > 6 h in [4]. Also, the t1/2 was 2.23 h in data set [2] and 6.8 h in data set [7]. The concentration for half-maximal inhibition (IC50) in data set [3] was 42.4 µM; in [8] it was > 500 µM. In addition, the Ki in data set [3] is 5.15 µM. Moreover, in [5], the Stability result is on record as “Stable”. Also, in the data set on 3T3-L1 [6], the EC50 was > 500 µM.
With `CC(=O)O[C@@H]1C[C@@](C)(O)CC[C@]12[C@@H](C(=O)O)CC[C@H]2C(C)C`, in data set [3], the IC50 is > 500 µM and the Ki was 289 µM. In addition, the EC50 in the data set with 3T3-L1 [6] was > 500 µM. For the same compound, the 50% inhibitory concentration (IC50) in [8] was > 500 µM.
For `CC(C)[C@@H]1CC[C@H](C(=O)O)[C@]12C[C@@H](O)[C@@](C)(O)[C@@H](O)C2`, in data set [3], the IC50 is > 500 µM and the Ki was found to be 130 µM. For the same compound, in the data set with 3T3-L1 [6], the EC50 is > 500 µM. Also, the 50% inhibitory concentration (IC50) in data set [8] is > 500 µM.
As for `O=C(Nc1ccccc1)c1cc([N+](=O)[O-])ccc1Cl`, in data set [9], the EC50 amounted to 0.002 µM.
Regarding `CC1=CC[C@@]2(C[C@H]1O)[C@@H](C(C)C)CC[C@H]2C(=O)O`, the IC50 in data set [3] is 80.3 µM; in data set [8] it was > 500 µM. For the same compound, the EC50 in the data set on 3T3-L1 [6] was > 500 µM.
On to `CC1=CC[C@@]2(C[C@@H]1O)[C@@H](C(=O)O)CC[C@H]2C1CCCCC1`, for which the half-life in [1] was > 48 h; in data set [4] it was > 6 h. In addition, the t1/2 in [2] worked out at 0.13 h; in data set [7], 0.3 h. Besides, the results for the concentration for half-maximal inhibition (IC50) in data set [3] and in [8] were 1.34 µM and > 500 µM, respectively. For the same compound, the Ki in [3] was 0.21 µM. The Stability entry in data set [5] is recorded as “Stable”. The EC50 in the data set with 3T3-L1 [6] was > 500 µM. Also, in the data set with 3T3-L1 [10], the inhibition result is “Active”.
With `COC(=O)[C@H]1CC[C@@H](C(C)C)[C@@]12CC=C(C)[C@@H](O)C2`, the IC50 in [3] and in data set [8] was > 500 µM in each case. Also, in [3], the Ki was > 500 µM. In the data set on 3T3-L1 [6], the EC50 is > 500 µM.
On to `CC1=CC[C@@]2([C@H](O)C1)[C@@H](C(=O)O)CC[C@H]2C1CCCCC1`, for which the half-life was > 48 h in data set [1] and > 6 h in data set [4]. Also, the t1/2 in data set [2] was determined as 0.3 h; in [7], 1.29 h. Further, the IC50 in [3] was 27.2 µM; in data set [8], > 500 µM. The Ki in [3] was 4.63 µM. In data set [5], the Stability result is “Stable”. Moreover, the EC50 in the data set with 3T3-L1 [6] was > 500 µM.
Regarding `C=C1CC[C@@]2(C(OC)[C@@H]1O)[C@@H](C(=O)O)CC[C@H]2C(C)C` (stereo not given in full), in [3], the IC50 was > 500 µM and the Ki worked out at 145 µM. Besides, the EC50 in the data set on 3T3-L1 [6] is > 500 µM. Moreover, the IC50 in data set [8] was > 500 µM.
Consider `CC1(C)[C@@H](OC(=O)CCC(=O)O)CC[C@]2(C)[C@H]3C(=O)C=C4[C@@H]5C[C@@](C)(C(=O)O)CC[C@]5(C)CC[C@@]4(C)[C@]3(C)CC[C@@H]12` [CARBENOXOLONE], for which, in the data set on 3T3-L1 [6], the EC50 was > 500 µM.
On to `CC(=O)O[C@H]1C[C@]2(CC=C1C)[C@@H](C(=O)O)CC[C@H]2C(C)C`, for which the IC50 in [3] is 178 µM; in data set [8], > 500 µM. Also, the EC50 in the data set with 3T3-L1 [6] is > 500 µM.
As for `C[C@]1(O)CC[C@@]2(C[C@@H]1O)[C@@H](C(=O)O)CC[C@H]2C1CCCCC1`, the IC50 in data set [3] is 379 µM; in data set [8], > 500 µM. For the same compound, in data set [3], the Ki was 57.6 µM. For the same compound, in the data set with 3T3-L1 [6], the EC50 was > 500 µM.
Consider `C=C1CC[C@@]2(C[C@@H]1OC(C)=O)[C@@H](C(=O)O)CC[C@H]2C(C)C`, for which the IC50 was 71 µM in data set [3] and > 500 µM in data set [8]. Further, in the data set on 3T3-L1 [6], the EC50 was > 500 µM.
As for `C=C1CC[C@]2(C[C@@H]1O)[C@H](C)CC[C@@H]2C(=O)O`, the concentration for half-maximal inhibition (IC50) in data set [3] is 162 µM; in data set [8], > 500 µM. Moreover, the EC50 in the data set on 3T3-L1 [6] was > 500 µM.
As to `C=C1CC[C@@]2(C[C@@H]1O)[C@@H](C(=O)O)CC[C@H]2C(C)C`, the IC50 in data set [3] is 38.3 µM; in [8] it was > 500 µM. In the data set on 3T3-L1 [6], the EC50 was > 500 µM.
Regarding `CC1=CC[C@@]2(C=C1)[C@@H](C(=O)O)CC[C@H]2C1CCCCC1`, the half-life in [1] is > 48 h; in [4] it was > 6 h. Further, the results for the t1/2 in data set [2] and in data set [7] were 0.27 h and 0.93 h, respectively. Further, the IC50 in data set [3] is 2.2 µM; in data set [8] it was > 500 µM. The Stability result in data set [5] is listed as “Stable”. Further, the concentration for a half-maximal effect (EC50) with 3T3-L1 [6] is > 300 µM. Besides, in the data set with 3T3-L1 [10], the inhibition entry is “Active”.
As to `CC1=CC[C@@]2(C[C@@H]1O)[C@@H](C(N)=O)CC[C@H]2C(C)C`, the IC50 in data set [3] and in data set [8] was > 500 µM each time. The Ki in data set [3] was > 500 µM. For the same compound, the EC50 in the data set on 3T3-L1 [6] was > 500 µM.
In the case of `CC1=CC[C@@]2([C@H](O)C1)[C@@H](C(=O)O)CC[C@H]2C(C)C`, in [3], the IC50 came out at 55.1 µM and the Ki was 8.23 µM. In addition, the EC50 in the data set on 3T3-L1 [6] is > 500 µM. Also, in data set [8], the IC50 was > 500 µM.
On to `CC1=CC[C@@]2(C[C@@H]1O)[C@H](C(=O)O)CC[C@H]2C(C)C`, for which the IC50 in data set [3] and in data set [8] was > 500 µM in each case. Also, in the data set with 3T3-L1 [6], the EC50 is > 500 µM.
